{
  "source": "patent US20250313530A1",
  "about": "“SMALL MOLECULE INHIBITORS OF INTERLEUKIN-4 AND USES THEREOF” (Trustees of Boston University, priority 2024, published 2025)",
  "key": {"[1]": {"experiment": "Mouse plasma stability", "assay_type": "in vitro ADME"}, "[2]": {"target": "T1, soluble IL-4 (Homo sapiens, UniProt P05112)", "T1 sequence (P05112 25-153)": "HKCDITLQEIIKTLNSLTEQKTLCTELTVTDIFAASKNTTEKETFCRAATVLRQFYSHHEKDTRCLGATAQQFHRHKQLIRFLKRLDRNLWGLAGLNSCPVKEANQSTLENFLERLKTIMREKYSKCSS", "experiment": "Differential scanning fluorimetry (thermal shift), IL-4", "assay_type": "binding", "method": "DSF was performed using BioRad CFX384."}, "[3]": {"target": "IL-13 (Homo sapiens, UniProt P35225)", "sequence (P35225 25-146)": "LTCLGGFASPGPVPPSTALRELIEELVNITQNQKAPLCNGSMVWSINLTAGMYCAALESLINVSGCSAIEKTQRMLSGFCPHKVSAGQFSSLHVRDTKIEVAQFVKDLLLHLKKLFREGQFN", "experiment": "HEK-Blue IL-4/IL-13 reporter assay, IL-13 inhibition", "assay_type": "cell-based", "conditions": "soluble IL-13 mediated signaling, HEK Blue IL-4/IL-13 reporter assay", "method": "Prior to screening. […] The solution was added to preincubated cells in a 96-well culture plate. The supernatant was then incubated with Quanti-Blue dye for 3 hours and absorbance was measured at 650 nm. Data was analyzed and plotted using GraphPad Prism 9.2.0."}, "[4]": {"tested_on": "B16-F10 cells", "experiment": "In vitro cytotoxicity (CellTiter-Glo)", "assay_type": "cell-based", "conditions": "up to 25 μM", "method": "CellTiter-Glo 2.0 purchased from Promega G9242) was used to measure cell viability with the Victor-3 plate reader (PerkinElmer) after 24 hours in concentrations of compound up to 25 μM. Vehicle was used as a negative control for both cytotoxicity and growth inhibition, methanol was used as a positive control for cytotoxicity, and 1% FBS was used as a positive control for growth inhibition."}},
  "note": "Where two headings read alike, the source gives them in different places.",
  "data": [
    {"molecule": "N#Cc1c(-c2ccc(O)c(O)c2)cc(-c2ccccc2)[nH]c1=N", "note": "[Compound 15, 4-(3,4-dihydroxyphenyl)-2-imino-6-phenyl-1,2-dihydropyridine-3-carbonitrile]", "values": [
      {"measurement": "Mouse plasma stability (% remaining after 3 hours)", "setting": "[1]", "result": 94.3, "unit": "%"},
      {"measurement": "ΔTm at 2 µM", "setting": "[2]; IL-4 shift minus IL-2 shift, 2 μM, read-out: thermal shift for IL-4 stronger than for IL-2 by", "result": "> 1", "unit": "°C"},
      {"measurement": "ΔTm at 2 µM", "setting": "[2]; soluble IL-4, 2 μM compound, 0.1% DMSO, read-out: Tm shift", "result": 1.75, "unit": "°C"},
      {"measurement": "EC50", "setting": "[3]", "result": 4.49, "unit": "µM"},
      {"measurement": "Cytotoxicity in B16-F10 cells (24 hours)", "setting": "[4]", "result": "no toxicity"},
      {"measurement": "Cytotoxicity in B16-F10 cells (24 hours)", "setting": "[4]; listed as Analog 15", "result": "n.s. < 25 μM"}
    ]}
  ]
}
